No end group written: not given here.
How the values were obtained:
[1] = pH at which the peptide starts to undergo self-assembly; type: physicochemical; settings: in solution
Description: As used herein, the pH at which the self-assembling peptide starts to undergo self-assembly refers to the pH below which a significant extent of self-assembly of the peptides in solution is observed, which means that at least about 25%, about 30%, about 35%, about 40%, about 45%, about 50%, about 55%, about 60%, about 65%, about 70%, about 75%, about 80%, about 85%, about 90%, about 95%, about 99% or even about 100% of the peptides found in the dental care product are assembled. In a preferred embodiment, at least about 25% of the peptides found in the dental care product are assembled below the pH at which the peptide starts to undergo self-assembly.
Further, the skilled person is aware of numerous methods to determine the pH at which a peptide of the present invention will start self-assembly at a given ionic strength. Suitable methods are denoted e.g. in a publication by Aggeli et al. (2003, J Am Chem Soc, 125, 9619-9628).

[2] = self-assembling kinetic by quartz crystal microbalance with dissipation monitoring (QCM-D, FIG. 7); type: physicochemical; settings: 10 mg/ml P11-4 in PBS pH 8.5 on P11-4 coated amine-coupling sensor
Protocol: P11-4 peptide was layered on the surface of the amine-coupling sensor at 1 mg/ml in PBS at pH8.5. After 1 hour and 1 hour 25 minutes, the sensor was washed with PBS pH 8.5. After 1 hour and 38 minutes, 10 mg/ml P11-4 peptide in PBS pH 8.5 were injected. After 2 hours, 0.1 M HCl were injected to induce self-assembly.
It can be seen that essentially complete self-assembly has occurred about 30 min after injection of 0.1 M HCl. Resonance frequency F (left scale, Hz) and energy dissipation factor D (right scale), triangle=frequency, square=dissipation are shown.

[3] = self-assembling kinetic by measurements of elastic modulus G' (FIG. 6); type: physicochemical; settings: 15 mg/ml; neutral pH; independent of ionic strength (buffers 140-165 mM); 0.1% strain, 37° C., 1 rad/second
Protocol: P11-4 was prepared at 15 mg/ml with different buffer compositions (see below) measured at 0.1% strain, 37° C. and a frequency of 1 rad/second. Self-assembly of peptide monomers to polymers takes more than 5 min independent of the used ionic strength at neutral pH. • Squares (top line of symbols)−NaCl: Tris (0.055 M)+NaCl, final ionic strength 142 mM; • Artificial saliva (second line of symbols from top): Tris, Ca(NO3)2, KH2PO4 (ratio 0.77:0.14:0.08), ionic strength 142 mM; • Dulbecco's Modified Eagle Medium (DMEM): NaCl, NaHCO3, KCl, CaCl2, MgSO4 (ratio 0.66:0.4:0.05:0.02:0.007), ionic strength 165 mM; • MgSO4: 0.055 M Tris+0.192 M MgSO4 0.14 M Ionic strength

[4] = Penetration of P11-4 (200 ppm, spiked with 10 ppm ATTO647-P11-4, 25 mM TRIS) into artificial subsurface lesions, confocal microscopy; design: species or system human
Protocol: Creation of artificial lesions on extracted human molar teeth was performed as described by Lo et al. 2010 (J Dent. 38(4):352-359). To define the position of the demineralized subsurface area (i.e., artificial carious lesion or white spot), the tooth was covered with colourless nail varnish, leaving a window of approximately 4×4 mm. The tooth was placed in demineralization buffer (2.2 mM CaCl2, 2.2 mM NaH2PO4, 50 mM acetic acid; pH adjusted with 1 M KOH to 4.4) for 3 d at 37° C. To ensure that all pores are open, as in a typical active caries lesion, the resulting subsurface lesions were treated with 10 μL of 2% NaClO (incubation for 1 min), rinsed, and air-dried at room temperature.
• A 200 ppm (i.e., 200 μg/ml) solution of P11-4 (SEQ ID NO: 2), spiked with 10 ppm ATTO647-P11-4 (fluorescence labelled P11-4 (SEQ ID NO: 6): Ac-QQRFEWEFEQQSGSGC-(ATTO647)-NH2), i.e., 1:20, in 25 mM TRIS buffer was prepared at different pH, in particular, at 8.4 or 8.5 or 6.3, 6.5 or 6.8) • As specified in the table below, tooth were optionally pretreated, e.g., by incubation in human saliva for one day (about 24 hours), optionally followed by 5 min sonication (258 hz with a sonic toothbrush, Sonicare Diamond Clean® (Philips)) or by immersion in 2% NaClO for 1 min. • Tooth were immersed in the P11-4 solution for a defined period of time, 1, 2 or 5 min, and then removed and washed in water for 10 min or in remineralization buffer (2 mM Ca(NO3), 1.2 mM KHPO4, and 60 mM Tris/HCl, pH adjusted to 7.4 with 1 M KOH) for 4 days and/or 6 days. • Confocal assessment after 1, 2 or 5 min incubation was carried out while the teeth were in P11-4 solution, and optionally, after washing in water or in remineralization buffer after 10 min or 4 or 6 days. c) Confocal Microscopy
Samples were placed in a μ-slide I (ibidi, Martinsried) in dest. water and analyzed by a confocal laser microscope (Olympus IX81). The recorded stack of four 2-dimensional images each projected the lesion volume of 51.4 μm thickness, giving a total assessment depth of 205 μm (objective: UPLSAPO 20×/NA 0.75; helium-neon gas laser; excitation: 633 nm and emission: 668 nm). Images were analyzed by Olympus software (FluoView FV1000).

QQRFEWEFEQQ [self-assembling peptide of 11 amino acids]
pH at which the self-assembling peptides start to undergo self-assembly [1]: about 7.5
time to essentially complete self-assembly after injection of 0.1 M HCl [2]: about 30 min
time for self-assembly of peptide monomers to polymers [3]: more than 5 min
peptide in the lesions after 4 days' incubation in remineralization buffer ([4]; pH8.5, FIG. 9Be): Lower but significant amounts
peptide in the lesions after 1 min incubation ([4]; pH8.5, teeth 10 and 1, FIG. 9Bb): already detectable
peptide in the lesions after 2 min or 5 min incubation ([4]; pH8.5, teeth 10 and 1, FIG. 9Bc, 9Bd): most peptide was detected
effect of incubation in remineralization buffer after contact with P11-4 containing solution ([4]; remineralization buffer versus water wash (tooth 10 versus tooth 2)): improves maintenance of the self-assembling peptide in the lesion
effect of pellicle formation by saliva on infiltration at pH 6.3-6.8 ([4]; teeth 3, 13): further decreased infiltration by peptide
peptide detectable in the lesions after incubation at pH 6.3-6.8 (polymerized form) ([4]; teeth 4, 12, 3, 13, versus incubation at pH 8.4 or 8.5): lower amounts of peptide
negative effect of pellicle after cleaning by sonication or NaClO ([4]; teeth ZR3 (sonication) and ZR2 (NaClO), after incubation with human saliva): could be compensated for
effect of sonification pretreatment before incubation on peptide in the lesions ([4]; tooth ZR1, pH 8.5): increased presence of peptide in the lesions
peptide detected after pellicle formation and cleaning by sonification ([4]; versus no pre-incubation with saliva): even higher amounts than without pre-incubation with saliva

Reference: US12485078B2, “Personal dental care product for caries treatment” (Credentis AG, priority 2016, dated 2025)
